According to patent publication US5175266A, “Nucleosides and oligonucleosides with a phosphate-free internucleoside backbone and process for preparing the same” (Triplex Pharmaceutical Corporation, priority 1991, dated 1992):

Assay: Chemical stability of the amide linkage (hydrolysis in NH4OH)
Assay type: physicochemical
Settings: 30% NH4OH, 55° C., 24 h, assessed by TLC
Procedure: To assess the chemical stability of the amide linkages in the synthesized compounds, the monomer (6) (T'gly) was subjected to hydrolysis in 30% NH4 OH at 55° C. for 24 h. […] Thus, the amide bond appears to be stable with respect to general base catalyzed hydrolysis. From a practical perspective, this stability to 30% NH4 OH at 55° C. confirms that the amide linkage can withstand the hydrolysis required to remove base protecting groups which are necessary for polymerization of A,C and G homologues.

Structure (SMILES): Cc1cn([C@H]2C[C@H](N)[C@@H](C(=O)NCC(=O)O)O2)c(=O)[nH]c1=O [Compound 6, 1-(3-amino-2,3-dideoxy-β-D-erythro-pentofuranosyl-5-glycine uronate)thymine]
- hydrolysis of the amide linkage: no hydrolysis of the amide linkage was detected
